This note sets out measurements from patent publication US7414132B2, “Opioid receptor antagonists” (Eli Lilly and Company, priority 2003, dated 2008).

Each structure is given as a SMILES string.

Assay type in all cases: biochemical
The target in assay [1] is mu opioid receptor (MOR) (Homo sapiens, UniProt P35372). The assay is described as follows: SPA-based GTP-γ-S binding assay, mu opioid receptor. The settings on record: membranes, GTP-γ-[35S] SPA; antagonist assay with agonist DAMGO 1 micromolar; read-out: In Vitro Ki Mu. The protocol:
(§1) An SPA-based GTP-γ-S assay format was developed based on previous opioid (Emmerson et al., J. Pharm Exp Ther 278, 1121, 1996; Horng et al., Society for Neuroscience Abstracts, 434.6, 2000) and muscarinic (DeLapp et al., JPET 289, 946, 1999) assay formats. Membranes were re-suspended in 20 mM HEPES, 100 mM NaCl, 5 mM MgCl2, 1 mM DTT, and 1 mM EDTA. Fifty (50) […] of GTP-γ-[35S], compound, membrane suspension (20 microgram/well), and wheat germ agglutinin coated SPA beads (1 mg/well) were added to clear bottom 96 well assay plates. GDP ([…]) was added to the membrane solution prior to addition to the assay plates. Plates were sealed and incubated for four hours at room temperature then placed in a refrigerator overnight to allow the beads to settle. Signal stability at 4° C. was determined to be >60 hours. Plates were warmed to room temperature and counted in a Wallac Microbeta scintillation counter.
(§2) For antagonist assays, specific agonists were added at the following concentrations: (MOR) DAMGO 1 micromolar, (DOR) DPDPE 30 nM, (KOR) U69593 300 nM. Kb's were determined by Cheng-Prusoff equation (see Cheng and Prusoff, Biochem. Pharmacol. 22, 3099, 1973).

Assay [2] deals with kappa opioid receptor (KOR) (Homo sapiens, UniProt P41145). Briefly: SPA-based GTP-γ-S binding assay, kappa opioid receptor. The settings on record: membranes, GTP-γ-[35S] SPA; antagonist assay with agonist U69593 300 nM; read-out: In Vitro Ki Kappa. The protocol: as §1, §2
Sequence of kappa opioid receptor (KOR) (P41145 whole entry): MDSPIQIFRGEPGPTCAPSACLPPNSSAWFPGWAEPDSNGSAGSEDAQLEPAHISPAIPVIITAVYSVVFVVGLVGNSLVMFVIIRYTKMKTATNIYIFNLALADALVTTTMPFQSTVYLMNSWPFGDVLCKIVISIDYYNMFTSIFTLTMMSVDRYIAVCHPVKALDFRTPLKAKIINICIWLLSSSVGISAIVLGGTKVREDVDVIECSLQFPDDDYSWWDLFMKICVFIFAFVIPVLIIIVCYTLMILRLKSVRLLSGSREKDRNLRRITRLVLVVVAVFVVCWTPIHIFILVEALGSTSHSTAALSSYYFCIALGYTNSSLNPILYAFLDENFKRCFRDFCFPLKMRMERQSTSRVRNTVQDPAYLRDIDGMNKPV
Background: GTPγS is a poorly hydrolysed GTP analogue; its binding reports G protein activation.

The target in assay [3] is delta opioid receptor (DOR) (Homo sapiens, UniProt P41143). The assay is described as follows: SPA-based GTP-γ-S binding assay, delta opioid receptor. The settings on record: membranes, GTP-γ-[35S] SPA; antagonist assay with agonist DPDPE 30 nM; read-out: In Vitro Ki Delta. The method, then:
as §1, §2

Sequence of delta opioid receptor (DOR) (P41143 whole entry): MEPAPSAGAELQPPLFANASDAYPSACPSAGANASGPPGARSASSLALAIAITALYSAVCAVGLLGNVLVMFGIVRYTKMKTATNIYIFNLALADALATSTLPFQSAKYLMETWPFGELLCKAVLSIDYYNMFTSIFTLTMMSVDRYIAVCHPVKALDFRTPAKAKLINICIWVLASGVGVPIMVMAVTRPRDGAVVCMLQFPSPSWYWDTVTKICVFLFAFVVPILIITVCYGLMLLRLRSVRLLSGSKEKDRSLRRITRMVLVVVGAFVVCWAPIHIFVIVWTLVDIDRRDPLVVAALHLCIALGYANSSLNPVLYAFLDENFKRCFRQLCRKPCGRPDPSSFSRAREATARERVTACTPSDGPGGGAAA
Sequence of mu opioid receptor (MOR) (P35372 whole entry): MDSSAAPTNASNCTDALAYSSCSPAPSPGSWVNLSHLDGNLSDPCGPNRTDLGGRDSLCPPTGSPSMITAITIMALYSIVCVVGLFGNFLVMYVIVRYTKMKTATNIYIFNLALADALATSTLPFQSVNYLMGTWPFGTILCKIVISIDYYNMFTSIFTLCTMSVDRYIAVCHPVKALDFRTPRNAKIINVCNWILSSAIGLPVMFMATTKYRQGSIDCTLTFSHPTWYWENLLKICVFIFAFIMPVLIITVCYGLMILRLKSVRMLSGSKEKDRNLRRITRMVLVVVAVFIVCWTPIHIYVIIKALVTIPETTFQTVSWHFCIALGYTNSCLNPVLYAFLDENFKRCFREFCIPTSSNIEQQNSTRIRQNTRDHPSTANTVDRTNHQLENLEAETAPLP

For the compound `CC(C)CCNCc1ccc(Oc2ccc(C3=NCCN3)cn2)cc1` [Example 4, {4-[5-(4,5-Dihydro-1H-imidazol-2-yl)-pyridin-2-yloxy]-benzyl}-(3-methyl-butyl)-amine], the figures for the Ki in assay [1], in assay [2] and in assay [3] were 9.5 nM, 34.1 nM and 120 nM, respectively.
For `CC(C)CCNCc1ccc(Oc2ccc3c(N)noc3c2)cc1` [Example 11, 6-{4-[(3-Methyl-butylamino)-methyl]-phenoxy}-benzo[d]isoxazol-3-ylamine] the same measures were 5.81 nM, 47.5 nM and 81.1 nM.
For the compound `c1csc(CCNCc2ccc(Oc3ccc(C4=NCCN4)cn3)cc2)c1` [Example 5, {4-[5-(4,5-Dihydro-1H-imidazol-2-yl)-pyridin-2-yloxy]-benzyl}-(2-thiophen-2yl-ethyl)amine], the figures for the Ki in assay [1], in assay [2] and in assay [3] were 16.4 nM, 32.8 nM and 370 nM, respectively.
For `CC(C)CCNCc1ccc(Oc2ccc(/C(N)=N/C#N)cn2)cc1` [Example 8, N-Cyano-6-{4-[(3-methyl-butylamino)-methyl]-phenoxy}-nicotinamidine] the same measures were 7.83 nM, 43.2 nM and 178 nM.
Take `CC(C)CCNCc1ccc(Oc2ccc(-c3ncc[nH]3)cn2)cc1` [Example 10, {4-[5-(1H-Imidazol-2-yl)-pyridin-2-yloxy]-benzyl}-(3-methyl-butyl)-amine]: the Ki in assay [1] came to 5.77 nM; in assay [2], 40.1 nM; in assay [3], 214 nM.
The corresponding values for `CC(C)CCNCc1ccc(Oc2ccc(C(=N)N)cn2)cc1` [Example 3, 6-{4-[(3-Methyl-butylamino)-methyl]-phenoxy}-nicotinamidine] are 46.1 nM, 134 nM and 485 nM.
Turning to `CC(C)CCNCc1ccc(Oc2ccc(/C(N)=N/O)cn2)cc1` [Example 2, N-Hydroxy-6-{4-[(3-methyl-butylamino)-methyl]-phenoxy}-nicotinamidine], the Ki in assay [1] was determined as 43.4 nM; in assay [2], 117 nM; in assay [3] it was 269 nM.
